Test results from patent US20220267288A1, “CARDIAC THERAPEUTIC” (priority 2019, published 2022).
Like-named read-outs stand apart in the source and are kept apart here. Marks after values point to notes of the source that are not given here.

Key:
[1] = biological target: T1, CYP2J2 (Homo sapiens, UniProt P51589); assay: Time- and concentration-dependent inactivation (MBI) of CYP2J2, rivaroxaban as probe substrate; format: biochemical; design: purchased BD Gentest (Woburn, Mass.)
T1 sequence (P51589 1-502): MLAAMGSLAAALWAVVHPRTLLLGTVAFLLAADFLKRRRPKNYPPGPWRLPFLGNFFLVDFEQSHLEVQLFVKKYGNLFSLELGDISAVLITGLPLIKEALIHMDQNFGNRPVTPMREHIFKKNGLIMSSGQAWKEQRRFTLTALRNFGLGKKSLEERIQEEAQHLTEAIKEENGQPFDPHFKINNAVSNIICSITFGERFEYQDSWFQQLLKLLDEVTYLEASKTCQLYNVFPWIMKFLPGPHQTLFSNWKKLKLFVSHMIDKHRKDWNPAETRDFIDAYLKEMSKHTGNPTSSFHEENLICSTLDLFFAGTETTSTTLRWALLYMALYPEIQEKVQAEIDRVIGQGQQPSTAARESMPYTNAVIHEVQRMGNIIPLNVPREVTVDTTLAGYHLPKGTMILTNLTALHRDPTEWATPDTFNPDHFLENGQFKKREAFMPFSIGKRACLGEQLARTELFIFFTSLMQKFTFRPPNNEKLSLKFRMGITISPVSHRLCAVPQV
Experimental: Incubations were conducted in triplicates in 96-well plates. Primary incubation mixtures comprising various concentrations of inhibitor (0-20 μM) were pre-incubated at 37° C. for 3 min with CYP450 enzymes (20 pmol/m L) and NADPH B in potassium phosphate buffer (100 mM, pH 7.4). To initiate the enzymatic reaction, 5 μL NADPH A was added to the primary incubation. The final primary incubation mixture volume was 100 μL and contained <1% v/v organic solvent. At different pre-incubation time points (3, 8, 15, 22, 30, and 45 min) after the addition of NADPH A, 5 μL aliquots of the primary incubation were transferred to 95 μL of the secondary incubation containing 50 μM rivaroxaban, the NADPH A and B, and potassium phosphate buffer (100 mM, pH 7.4) to yield a 20-fold dilution. The secondary incubation mixtures were incubated at 37° C. for 30 min with CYP2J2, before 80 μL aliquots were removed and quenched with an equal volume of ice-cold ACN containing 4 μM dexamethasone as IS. The samples were then centrifuged at 3220 g at 4° C. for 30 min before transferring the supernatant to a 96-well plate for liquid chromatography-tandem mass spectrometry (LC-MS/MS) analysis. The main rivaroxaban metabolite, morpholinone hydroxylated metabolite, was quantified using LC-MS/MS analysis.
The mean of triplicate peak area ratios for each concentration and pre-incubation time was normalized to that of 0 μM with the same pre-incubation time. The amount of rivaroxaban metabolite formed during the secondary incubation, a measure of the probe substrate activity remaining, was computed and the natural logarithm of this measure was plotted against inactivation pre-incubation time for each inactivator concentration. […]
In equation 1, kinact=maximum inactivation rate constant at infinite inactivator concentration (in min^−1); KI=concentration of inactivator at the half-maximal rate constant of inactivation (in μM); [I]=in vitro inactivator concentration (in μM). MBI potency (kinact/KI ratio, μM-1·min-1) against human recombinant CYP2J2 is determined for each compound. […]

[2] = biological target: T1, CYP2J2; assay: Inhibition of CYP2J2-mediated astemizole metabolism in hiPSC-CM; format: cell-based; design: endogenous in cells; host or cells: hiPSC-CM (from human foreskin fibroblasts); settings: 2 μM drug co-incubated with 1 μM astemizole
Experimental: HiPSC-CM were seeded at a density 100,000 cell/well in a 12-well plate and differentiated for 30 days. […] The cells were then washed with 1×PBS twice and dislodged using Accutase® cell detachment solution. The cells were then pelleted at 2000 g for 10 min at 4° C. The supernatant was discarded and the pellets were resuspended in 100 μL of ice-cold ACN with 0.1 μM buspirone as an internal standard. The cells were sonicated for 15 min on ice to bring about complete cell lysis. The lysate was centrifuged at 10,000×g for 15 min at 4° C. The supernatant was collected and analyzed using LC/MS/MS.
The LC/MS/MS system consisted of an Agilent 1290 Infinity ultra-high pressure liquid chromatography (UPLC) system (Agilent Technologies Inc., Santa Clara, Calif.) interfaced with the AB SCIEX QTRAP® 5500 tandem mass spectrometry (MS/MS) system (AB SCIEX, Framingham, Mass.). The LC/MS/MS system was controlled by Analyst 1.4.2 software (Applied Biosystems) which performed all chromatographic peak integration. The ACQUITY UPLC BEH C18 column, 1.7 μM, 2.1×50 mm (Waters, Milford, Mass.), was used to achieve chromatographic separation. The temperatures of the column and samples were maintained at 45° C. and 4° C. respectively. The mobile phases were 0.2% acetic acid in 5 mM ammonium acetate (solvent A) and 0.2% acetic acid in ACN (solvent B). They were delivered at a flow rate of 0.6 mL/min. […]

[3] = cited from earlier work
[4] = system: hiPSC-CM; assay: Extracellular field potential duration (FPD), multi electrode array; format: cell-based, human; settings: MEA, 0-10 μM
Experimental: Electrophysiological perturbations of hiPSC-CM were measured using multi electrode array (MEA) recording system (Multichannel Systems, Reutlingen, Germany). […] FPD measurements were normalized (corrected FPD [cFPD]) to the beating rate of the contracting areas with the Bazzet correction formula: cFPD=FPD/√(RR interval) as described previously^3. One-phase decay algorithm was used to plot corrected FPD curves.

[5] = biological target: T1, CYP2J2; design: endogenous in cells; host or cells: hiPSC-CM (from human foreskin fibroblasts); settings: PBPK parameter; read-out: Reversible inhibition Ki CYP2J2; cited from earlier work
[6] = biological target: T2, CYP3A4 (Homo sapiens, UniProt P08684); assay: Metabolic stability (substrate depletion) with CYP3A4; format: in vitro ADME; settings: for elimination rate constant k by CYP3A4 / half-life at 1 μM: 1 μM substrate, CYP3A4 10 pmol/mL; for CLint (CYP3A4): PBPK parameter, in vitro data obtained; for half-life at 1 μM: human, CYP3A4 enzyme, pH 7.4, read-out: T1/2 by CYP3A4; for Intrinsic clearance, CLint CYP3A4: substrate depletion
T2 construct: purchased BD Gentest (Woburn, Mass.)
T2 sequence (P08684 whole entry): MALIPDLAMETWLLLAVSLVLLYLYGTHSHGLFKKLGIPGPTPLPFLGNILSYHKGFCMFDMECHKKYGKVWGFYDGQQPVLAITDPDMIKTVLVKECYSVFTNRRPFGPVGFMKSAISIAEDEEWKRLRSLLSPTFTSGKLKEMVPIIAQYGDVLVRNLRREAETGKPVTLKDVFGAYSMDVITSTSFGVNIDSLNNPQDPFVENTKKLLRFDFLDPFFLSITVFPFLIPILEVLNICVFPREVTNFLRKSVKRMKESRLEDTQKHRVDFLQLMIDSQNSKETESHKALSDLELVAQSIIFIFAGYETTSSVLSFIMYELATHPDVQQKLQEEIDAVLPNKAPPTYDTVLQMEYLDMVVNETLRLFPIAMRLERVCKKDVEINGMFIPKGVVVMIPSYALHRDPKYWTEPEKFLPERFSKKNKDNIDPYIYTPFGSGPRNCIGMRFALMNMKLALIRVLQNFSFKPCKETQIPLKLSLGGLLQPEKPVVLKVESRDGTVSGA
Experimental: The metabolic stability experiments were performed to derive intrinsic clearance (CLint) values via the substrate depletion method. […] NADPH A was subsequently added to initiate the reaction. […] The reaction mixtures were incubated at 37° C. with gentle agitation. At the respective time points (0-60 min), 80 μL of the reaction mixture was quenched using an equal volume of ice-cold ACN with 1 μM tamoxifen as internal standard (IS). The samples were then centrifuged at 3220 g at 4° C. for 30 min before transferring the supernatant to a 96-well plate for liquid chromatography-tandem mass spectrometry (LC-MS/MS) analysis.
The mean of triplicate peak area ratios for each compound was normalized to that of the same compound at the 0 min time point to obtain the percentage of substrate remaining at each time point. This was plotted against incubation time for each compound and the data was then fitted to a one-phase decay model using GraphPad Prism software (version 8.02; GraphPad Inc., San Diego, Calif.) to obtain an estimation for the elimination rate constant (k). CLint was then calculated based on equation 3:
In equation 3, k=elimination rate constant (min^−1); V=volume of incubation mixture (mL); P=amount of protein in mixture (mg).

For `CCCCc1oc2ccc(NS(C)(=O)=O)cc2c1C(=O)c1ccc(OCCCN(CCCC)CCCC)cc1.Cl` [Dronedarone], which “inactivation (MBI) of CYP2J2, in words” value [1] is on record?
Its value is “demonstrated inactivation of CYP2J2”.

And the “inhibition of CYP2J2 in hiPSC-CM” value ([2]; 24 h)?
Its value is 98%.

And the Caco-2 permeability ([3]; PBPK parameter)?
Its Caco-2 permeability is 0.595 ×10⁻⁶ cm/s.

What about the “Kp of tissues: Adipose” value ([3]; PBPK parameter) of the same molecule?
The value was 1.

What about the “Kp of tissues: Heart” value ([3]; PBPK parameter) of the same molecule?
Its value is 1.

What about the “Kp of tissues: Kidney” value ([3]; PBPK parameter) of the same molecule?
Its value is 1.

And the “Kp of tissues: Liver” value ([3]; PBPK parameter)?
Its value is 38.05.

What about the “Kp of tissues: Lung” value ([3]; PBPK parameter) of the same molecule?
The value was 64.01.

And the fu ([3]; PBPK parameter)?
The fu was 0.003.

And the “log P” value ([3]; PBPK parameter)?
The value was 6.46.

And the pKa ([3]; PBPK parameter, monoprotic base)?
The pKa was 9.4.

What about the Solubility-pH profile ([3]; pH 3) of the same molecule?
Its Solubility-pH profile is 1.6 mg/mL.

What about the Solubility-pH profile ([3]; pH 4) of the same molecule?
Its Solubility-pH profile is 1.6 mg/mL.

What about the Solubility-pH profile ([3]; pH 5) of the same molecule?
The Solubility-pH profile was 1.5 mg/mL.

And the Solubility-pH profile ([3]; pH 6)?
The Solubility-pH profile was 0.1 mg/mL.

And the Solubility-pH profile ([3]; pH 7)?
The Solubility-pH profile was 0.01 mg/mL.

And the “effect on extracellular field potential duration (FPD)” value [4]?
The value was “Dose-dependent increase in the FPD”.

What about the Ki [5] of the same molecule?
Its Ki is 930 nM.

And the “elimination rate constant k by CYP3A4” value [6]?
The value was 0.04144 min⁻¹.

And the “CLint (CYP3A4)” value [6]?
Its value is 114.739* μL/min/mg microsomal protein.

And the half-life at 1 μM [6]?
The half-life at 1 μM was 16.7 min.

And the “Intrinsic clearance, CLint CYP3A4” value [6]?
The value was 8.29 µL/min/pmol.

And the “Intrinsic clearance, CLint CYP3A4” value ([6]; listed as dronedarone)?
Its value is 8.288 µL/min/pmol.

Which results are given for `Cl.[2H]c1c(NS(C)(=O)=O)c([2H])c2c(C(=O)c3ccc(OCCCN(CCCC)CCCC)cc3)c(CCCC)oc2c1[2H]` [Poyendarone, Methanesulfonamide, N-(2-butyl-3-(4-(3-(dibutylamino)propoxy)benzoyl)-1-benzo(4,6,7-d3)-furan-5-yl)hydrochloride]?
inactivation (MBI) of CYP2J2, in words [1]: does not cause MBI of CYP2J2; inhibition at 24 h, 2 μM ([2]; human, hiPSC-derived cardiomyocytes (hiPSC-CM), probe astemizole (1 μM)): 50%; Caco-2 permeability ([3]; PBPK parameter, assumed): 0.595 ×10⁻⁶ cm/s; Kp of tissues: Liver ([3]; PBPK parameter, assumed): 38.05; Kp of tissues: Lung ([3]; PBPK parameter, assumed): 64.01; pKa ([3]; PBPK parameter, assumed): 9.4; Kp of tissues: Adipose ([3]; PBPK parameter): 1; Kp of tissues: Heart ([3]; PBPK parameter): 1; Kp of tissues: Kidney ([3]; PBPK parameter): 1; log P ([3]; PBPK parameter): 6.442; Additional HLM clearance ([3]; assumed): 55 μL/min/mg microsomal protein; Intrinsic solubility ([3]; assumed): 2.01 × 10^−3 (assumed) mg/mL; effect on extracellular field potential duration (FPD) [4]: Dose-dependent increase in the FPD; Ki [5]: 930 nM; elimination rate constant k by CYP3A4 [6]: 0.0918 min⁻¹; CLint (CYP3A4) [6]: 115.2016* μL/min/mg microsomal protein; half-life at 1 μM [6]: 7.55 min; Intrinsic clearance, CLint CYP3A4 [6]: 9.18 µL/min/pmol
